# Experiments:
# Assay in all cases: cells
# Assay type in all cases: functional, cell-based, Homo sapiens
# LB647-SCLC = details: Homo sapiens, LB647-SCLC;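 further: cell growth inhibition, read out by a viability assay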
# Description: SANGER: Inhibition of human LB647-SCLC cell growth in a cell viability assay.
# NCI-H1963 = details: Homo sapiens, NCI-H1963;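 further: cell growth inhibition of the human line, determined with a cell viability assay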
# Description: SANGER: Inhibition of human NCI-H1963 cell growth in a cell viability assay.
# SCC-3 = details: Homo sapiens, SCC-3;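 further: cell viability assay measuring inhibition of SCC-3 cell growth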
# Description: SANGER: Inhibition of human SCC-3 cell growth in a cell viability assay.
# HCC1599 = details: Homo sapiens, HCC1599;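 further: growth inhibition of HCC1599 cells, read out in a cell viability assay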
# Description: SANGER: Inhibition of human HCC1599 cell growth in a cell viability assay.
# SIG-M5 = details: Homo sapiens, SIG-M5;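 further: cell viability assay read-out, measuring how strongly growth of cultured human SIG-M5 cells is inhibited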
# Description: SANGER: Inhibition of human SIG-M5 cell growth in a cell viability assay.
# NCI-H727 = details: Homo sapiens, NCI-H727;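 further: growth inhibition of human NCI-H727 cells, read out with a cell viability assay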
# Description: SANGER: Inhibition of human NCI-H727 cell growth in a cell viability assay.
# HT-1080 = details: Homo sapiens, HT-1080
# Description: SANGER: Inhibition of human HT-1080 cell growth in a cell viability assay.
# A 172 = details: Homo sapiens, A 172;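 further: growth inhibition of A172 cells, measured with a cell viability readout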
# Description: SANGER: Inhibition of human A172 cell growth in a cell viability assay.
# CAL-72 = details: Homo sapiens, CAL-72;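 further: cell viability assay measuring inhibition of proliferation in the CAL-72 cell line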
# Description: SANGER: Inhibition of human CAL-72 cell growth in a cell viability assay.
# MG-63 = details: Homo sapiens, MG-63;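 further: growth inhibition of human MG-63 cells, read out with a cell viability assay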
# Description: SANGER: Inhibition of human MG-63 cell growth in a cell viability assay.
# HOS = details: Homo sapiens, HOS;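 further: growth inhibition of human HOS cells, read out with a cell viability assay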
# Description: SANGER: Inhibition of human HOS cell growth in a cell viability assay.
# 8305C = details: Homo sapiens, 8305C
# Description: SANGER: Inhibition of human 8305C cell growth in a cell viability assay.
# KYSE-450 = details: Homo sapiens, KYSE-450;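 further: cell growth inhibition measured by a viability assay in human KYSE-450 cells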
# Description: SANGER: Inhibition of human KYSE-450 cell growth in a cell viability assay.
# SiHa = details: Homo sapiens, SiHa;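 further: Viability-based readout of growth inhibition in SiHa cells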
# Description: SANGER: Inhibition of human SiHa cell growth in a cell viability assay.
# NCI-H460 = details: Homo sapiens, NCI-H460;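 further: cell viability assay scoring growth inhibition of human NCI-H460 cells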
# Description: SANGER: Inhibition of human NCI-H460 cell growth in a cell viability assay.
# NCI-H1693 = details: Homo sapiens, NCI-H1693;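 further: growth inhibition of the human cell line, read out with a cell viability assay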
# Description: SANGER: Inhibition of human NCI-H1693 cell growth in a cell viability assay.
# HSC-3 = details: Homo sapiens, HSC-3
# Description: SANGER: Inhibition of human HSC-3 cell growth in a cell viability assay.
# MHH-ES-1 = details: Homo sapiens, MHH-ES-1;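 further: cell growth inhibition measured by a cell viability assay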
# Description: SANGER: Inhibition of human MHH-ES-1 cell growth in a cell viability assay.
# NCI-H2228 = details: Homo sapiens, NCI-H2228;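 further: growth inhibition of human NCI-H2228 cells, read out by a cell viability assay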
# Description: SANGER: Inhibition of human NCI-H2228 cell growth in a cell viability assay.
# HT-29 = details: Homo sapiens, HT-29;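 further: growth inhibition of human HT-29 cells, read out by a cell viability assay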
# Description: SANGER: Inhibition of human HT-29 cell growth in a cell viability assay.
# HGC-27 = details: Homo sapiens, HGC-27;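 further: growth inhibition of human HGC-27 cells, read out in a cell viability assay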
# Description: SANGER: Inhibition of human HGC-27 cell growth in a cell viability assay.
# EFO-21 = details: Homo sapiens, EFO-21;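 further: growth inhibition of EFO-21 cells measured with a viability assay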
# Description: SANGER: Inhibition of human EFO-21 cell growth in a cell viability assay.
# VMRC-RCZ = details: Homo sapiens, VMRC-RCZ;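 further: growth inhibition measured with a cell viability assay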
# Description: SANGER: Inhibition of human VMRC-RCZ cell growth in a cell viability assay.
# NCI-H1437 = details: Homo sapiens, NCI-H1437;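 further: growth inhibition of human NCI-H1437 cells, read out by a cell viability assay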
# Description: SANGER: Inhibition of human NCI-H1437 cell growth in a cell viability assay.
# NCI-H2347 = details: Homo sapiens, NCI-H2347;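 further: growth inhibition of the cell line, read out with a cell viability assay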
# Description: SANGER: Inhibition of human NCI-H2347 cell growth in a cell viability assay.
# SNU-423 = details: Homo sapiens, SNU-423
# Description: SANGER: Inhibition of human SNU-423 cell growth in a cell viability assay.
# IGR-1 = details: Homo sapiens, IGR-1;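 further: growth inhibition of human IGR-1 cells, read out with a cell viability assay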
# Description: SANGER: Inhibition of human IGR-1 cell growth in a cell viability assay.
# MFE-280 = details: Homo sapiens, MFE-280;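 further: growth inhibition of MFE-280 cells, determined with a cell viability readout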
# Description: SANGER: Inhibition of human MFE-280 cell growth in a cell viability assay.
# OVCAR-5 = details: Homo sapiens, OVCAR-5;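 further: growth inhibition of human OVCAR-5 cells, read out with a cell viability assay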
# Description: SANGER: Inhibition of human OVCAR-5 cell growth in a cell viability assay.
# SK-MES-1 = details: Homo sapiens, SK-MES-1;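 further: growth inhibition of human SK-MES-1 cells, read out with a cell viability assay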
# Description: SANGER: Inhibition of human SK-MES-1 cell growth in a cell viability assay.
# DOK = details: Homo sapiens, DOK;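 further: cell viability assay read-out, values reflect inhibition of cell growth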
# Description: SANGER: Inhibition of human DOK cell growth in a cell viability assay.
# KYSE-180 = details: Homo sapiens, KYSE-180;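 further: growth inhibition of KYSE-180 cells, read out with a cell viability assay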
# Description: SANGER: Inhibition of human KYSE-180 cell growth in a cell viability assay.
# YAPC = details: Homo sapiens, YAPC;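 further: growth inhibition of YAPC cells, measured with a cell viability assay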
# Description: SANGER: Inhibition of human YAPC cell growth in a cell viability assay.
# RMG-I = details: Homo sapiens, RMG-I;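 further: growth inhibition of human RMG-I cells, read out with a cell viability assay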
# Description: SANGER: Inhibition of human RMG-I cell growth in a cell viability assay.
# EFM-19 = details: Homo sapiens, EFM-19;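 further: growth inhibition of human EFM-19 cells, measured in a cell viability assay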
# Description: SANGER: Inhibition of human EFM-19 cell growth in a cell viability assay.
# SW1463 = details: Homo sapiens, SW1463;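 further: growth inhibition of SW1463 cells, determined with a cell viability assay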
# Description: SANGER: Inhibition of human SW1463 cell growth in a cell viability assay.
# LK-2 = details: Homo sapiens, LK-2;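 further: growth inhibition of LK-2 cells, read out with a viability assay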
# Description: SANGER: Inhibition of human LK-2 cell growth in a cell viability assay.
# NCI-H1651 = details: Homo sapiens, NCI-H1651;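 further: Read-out is a cell viability assay, with IC50 expressing inhibition of NCI-H1651 cell growth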
# Description: SANGER: Inhibition of human NCI-H1651 cell growth in a cell viability assay.
# BXPC-3 = details: Homo sapiens, BXPC-3;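 further: growth inhibition of human BxPC-3 cells, read out by a cell viability assay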
# Description: SANGER: Inhibition of human BxPC-3 cell growth in a cell viability assay.
# DBTRG-05MG = details: Homo sapiens, DBTRG-05MG;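 further: cell viability assay measuring growth inhibition of human DBTRG-05MG cells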
# Description: SANGER: Inhibition of human DBTRG-05MG cell growth in a cell viability assay.
# SW1710 = details: Homo sapiens, SW1710;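 further: growth inhibition of SW1710 cells, determined with a cell viability assay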
# Description: SANGER: Inhibition of human SW1710 cell growth in a cell viability assay.
# SBC-5 = details: Homo sapiens, SBC-5;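 further: cell viability assay read-out, IC50 is the concentration that inhibits growth of the cells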
# Description: SANGER: Inhibition of human SBC-5 cell growth in a cell viability assay.
# 5637 = details: Homo sapiens
# Description: SANGER: Inhibition of human 5637 cell growth in a cell viability assay.
# MDA-MB-415 = details: Homo sapiens, MDA-MB-415
smiles,measurement,setting,value
COc1cc(N2CCN(C)CC2)ccc1Nc1ncc2c(n1)N(C)c1ccccc1C(=O)N2C,IC50,LB647-SCLC,> 8 µM
same,IC50,NCI-H1963,> 8 µM
same,IC50,SCC-3,> 8 µM
same,IC50,HCC1599,> 8 µM
same,IC50,SIG-M5,5.36 µM
COc1cc(-c2nn([C@H]3CC[C@H](N4CCN(C(C)=O)CC4)CC3)c3ncnc(N)c23)ccc1NC(=O)c1cc2ccccc2n1C,IC50,LB647-SCLC,4.89 µM
same,IC50,NCI-H1963,> 5.12 µM
same,IC50,SCC-3,> 5.12 µM
same,IC50,HCC1599,> 5.12 µM
same,IC50,SIG-M5,> 5.12 µM
Cc1cc([N+](=O)[O-])ccc1NS(=O)(=O)c1cc(Cl)ccc1Cl,IC50,NCI-H727,2.03 µM
same,IC50,HT-1080,0.675 µM
same,IC50,A 172,5.91 µM
same,IC50,LB647-SCLC,> 32 µM
same,IC50,CAL-72,> 32 µM
same,IC50,MG-63,5.96 µM
same,IC50,HOS,2.53 µM
same,IC50,8305C,3.99 µM
same,IC50,KYSE-450,6.37 µM
same,IC50,SiHa,19.7 µM
same,IC50,NCI-H460,3.66 µM
same,IC50,NCI-H1693,> 32 µM
same,IC50,HSC-3,2.89 µM
same,IC50,NCI-H1963,8.68 µM
same,IC50,MHH-ES-1,6.43 µM
same,IC50,NCI-H2228,17 µM
same,IC50,HT-29,5.53 µM
same,IC50,HGC-27,4.03 µM
same,IC50,EFO-21,11.1 µM
same,IC50,VMRC-RCZ,6.97 µM
same,IC50,NCI-H1437,2.73 µM
same,IC50,NCI-H2347,5.86 µM
same,IC50,SNU-423,7.17 µM
same,IC50,SCC-3,> 32 µM
same,IC50,IGR-1,2.01 µM
same,IC50,MFE-280,2.77 µM
same,IC50,OVCAR-5,23.6 µM
same,IC50,HCC1599,16.7 µM
same,IC50,SK-MES-1,2.07 µM
same,IC50,DOK,> 32 µM
same,IC50,KYSE-180,3.13 µM
same,IC50,YAPC,> 32 µM
same,IC50,RMG-I,11.5 µM
same,IC50,EFM-19,5.44 µM
same,IC50,SW1463,7.85 µM
same,IC50,LK-2,0.928 µM
same,IC50,NCI-H1651,3.94 µM
same,IC50,BXPC-3,6.84 µM
same,IC50,DBTRG-05MG,9.11 µM
same,IC50,SW1710,2.33 µM
same,IC50,SBC-5,1.61 µM
same,IC50,SIG-M5,3.36 µM
same,IC50,5637,7.25 µM
same,IC50,MDA-MB-415,4.7 µM
OCCCNc1cc(-c2ccnc(Nc3cccc(Cl)c3)n2)ccn1,IC50,LB647-SCLC,> 0.256 µM
same,IC50,NCI-H1963,0.0931 µM
same,IC50,SCC-3,0.0378 µM
same,IC50,HCC1599,0.0439 µM
same,IC50,SIG-M5,0.0299 µM
Oc1ccc2ccccc2c1SSc1c(O)ccc2ccccc12,IC50,NCI-H727,19.7 µM
same,IC50,HT-1080,18.6 µM
same,IC50,A 172,> 32 µM
same,IC50,LB647-SCLC,7.3 µM
same,IC50,CAL-72,24.7 µM
same,IC50,MG-63,> 32 µM
same,IC50,HOS,4.5 µM
same,IC50,8305C,4.17 µM
same,IC50,KYSE-450,> 32 µM
same,IC50,SiHa,> 32 µM
same,IC50,NCI-H460,> 32 µM
same,IC50,NCI-H1693,> 32 µM
same,IC50,HSC-3,> 32 µM
same,IC50,NCI-H1963,> 32 µM
same,IC50,MHH-ES-1,> 32 µM
same,IC50,NCI-H2228,> 32 µM
same,IC50,HT-29,> 32 µM
same,IC50,HGC-27,17.2 µM
same,IC50,EFO-21,> 32 µM
same,IC50,VMRC-RCZ,14.1 µM
same,IC50,NCI-H1437,> 32 µM
same,IC50,NCI-H2347,> 32 µM
same,IC50,SNU-423,> 32 µM
same,IC50,SCC-3,> 32 µM
same,IC50,IGR-1,> 32 µM
same,IC50,MFE-280,> 32 µM
same,IC50,OVCAR-5,> 32 µM
same,IC50,HCC1599,> 32 µM
same,IC50,SK-MES-1,11.6 µM
same,IC50,DOK,> 32 µM
same,IC50,KYSE-180,> 32 µM
same,IC50,YAPC,> 32 µM
same,IC50,RMG-I,> 32 µM
same,IC50,EFM-19,27.3 µM
same,IC50,SW1463,> 32 µM
same,IC50,LK-2,29.2 µM
same,IC50,NCI-H1651,> 32 µM
same,IC50,BXPC-3,> 32 µM
same,IC50,DBTRG-05MG,> 32 µM
same,IC50,SW1710,1.18 µM
same,IC50,SBC-5,> 32 µM
same,IC50,SIG-M5,2.1 µM
same,IC50,5637,> 32 µM
same,IC50,MDA-MB-415,> 32 µM
N#Cc1c(O)c2c(-c3ccc(-c4ccccc4O)cc3)csc2[nH]c1=O,IC50,NCI-H727,> 1.02 µM
same,IC50,HT-1080,> 1.02 µM
same,IC50,A 172,> 1.02 µM
same,IC50,LB647-SCLC,0.622 µM
same,IC50,CAL-72,> 1.02 µM
same,IC50,MG-63,> 1.02 µM
same,IC50,HOS,> 1.02 µM
same,IC50,8305C,> 1.02 µM
same,IC50,KYSE-450,> 1.02 µM
same,IC50,SiHa,> 1.02 µM
same,IC50,NCI-H460,> 1.02 µM
same,IC50,NCI-H1693,> 1.02 µM
same,IC50,HSC-3,> 1.02 µM
same,IC50,NCI-H1963,> 1.02 µM
same,IC50,MHH-ES-1,> 1.02 µM
same,IC50,NCI-H2228,> 1.02 µM
same,IC50,HT-29,> 1.02 µM
same,IC50,HGC-27,> 1.02 µM
same,IC50,EFO-21,> 1.02 µM
same,IC50,VMRC-RCZ,> 1.02 µM
same,IC50,NCI-H1437,> 1.02 µM
same,IC50,NCI-H2347,> 1.02 µM
same,IC50,SNU-423,> 1.02 µM
same,IC50,SCC-3,> 1.02 µM
same,IC50,IGR-1,> 1.02 µM
same,IC50,MFE-280,> 1.02 µM
same,IC50,OVCAR-5,> 1.02 µM
same,IC50,HCC1599,0.278 µM
same,IC50,SK-MES-1,> 1.02 µM
same,IC50,DOK,> 1.02 µM
same,IC50,KYSE-180,> 1.02 µM
same,IC50,YAPC,> 1.02 µM
same,IC50,RMG-I,> 1.02 µM
same,IC50,EFM-19,> 1.02 µM
same,IC50,SW1463,> 1.02 µM
same,IC50,LK-2,> 1.02 µM
same,IC50,NCI-H1651,> 1.02 µM
same,IC50,BXPC-3,> 1.02 µM
same,IC50,DBTRG-05MG,> 1.02 µM
same,IC50,SW1710,> 1.02 µM
same,IC50,SBC-5,> 1.02 µM
same,IC50,SIG-M5,0.00786 µM
same,IC50,5637,> 1.02 µM
same,IC50,MDA-MB-415,> 1.02 µM
Cc1ccc(-c2c(C(=O)CCl)n(CCCO)c3ncnc(N)c23)cc1,IC50,LB647-SCLC,> 4 µM
same,IC50,NCI-H1963,> 4 µM
same,IC50,SCC-3,> 4 µM
same,IC50,HCC1599,2.17 µM
same,IC50,SIG-M5,> 4 µM

# Reference: ChEMBL document CHEMBL1201861, “Genomics of Drug Sensitity in Cancer screening data, Wellcome Trust Sanger Institute”
